Measurements reported in patent publication US20230073777A1, “CYCLIC-AMP RESPONSE ELEMENT BINDING PROTEIN (CBP) AND/OR ADENOVIRAL E1A BINDING PROTEIN OF 300 KDA (P300) DEGRADATION COMPOUNDS AND METHODS OF USE” (CULLGEN (SHANGHAI), INC., priority 2019, published 2023).

What was measured:
[1] = system: LNCaP cells; experiment: LNCaP cell viability assay (CellTiter-Glo); assay type: cell-based; conditions: Homo sapiens, 72 h; LNCaP prostate cancer cell viability inhibition, 3 days, CellTiter-Glo (Table 3)
Outline: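 LNCaP cells, 5000/well, exposed to compounds in 12-point 3-fold serial dilution (top 10 μM) for 3 days. Viability by CellTiter-Glo luminescence, normalized to untreated cells; IC50 by least-squares nonlinear regression.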

[2] = target: P300 (Homo sapiens, UniProt Q09472); experiment: Immunoblotting of P300 protein levels in LNCaP or 22RV1 cells; assay type: cell-based; parameters: LNCaP or 22RV1 cells that express CBP/P300 proteins were treated with GNE-781 or the bivalent compounds; endogenous in cells; host or cells: LNCaP (clone FGC) or 22RV1 cells; conditions: percentage of inhibition of p300 at 10 nM (Table 3); read-out: Degradation (10 nM)
Outline: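 LNCaP or 22RV1 cells treated with compounds for indicated hours, DMSO as negative control. RIPA lysates resolved by SDS-PAGE and immunoblotted for P300 or CBP, tubulin or vinculin as loading control; chemiluminescent bands quantitated.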

Sequence of P300 (Q09472 whole entry): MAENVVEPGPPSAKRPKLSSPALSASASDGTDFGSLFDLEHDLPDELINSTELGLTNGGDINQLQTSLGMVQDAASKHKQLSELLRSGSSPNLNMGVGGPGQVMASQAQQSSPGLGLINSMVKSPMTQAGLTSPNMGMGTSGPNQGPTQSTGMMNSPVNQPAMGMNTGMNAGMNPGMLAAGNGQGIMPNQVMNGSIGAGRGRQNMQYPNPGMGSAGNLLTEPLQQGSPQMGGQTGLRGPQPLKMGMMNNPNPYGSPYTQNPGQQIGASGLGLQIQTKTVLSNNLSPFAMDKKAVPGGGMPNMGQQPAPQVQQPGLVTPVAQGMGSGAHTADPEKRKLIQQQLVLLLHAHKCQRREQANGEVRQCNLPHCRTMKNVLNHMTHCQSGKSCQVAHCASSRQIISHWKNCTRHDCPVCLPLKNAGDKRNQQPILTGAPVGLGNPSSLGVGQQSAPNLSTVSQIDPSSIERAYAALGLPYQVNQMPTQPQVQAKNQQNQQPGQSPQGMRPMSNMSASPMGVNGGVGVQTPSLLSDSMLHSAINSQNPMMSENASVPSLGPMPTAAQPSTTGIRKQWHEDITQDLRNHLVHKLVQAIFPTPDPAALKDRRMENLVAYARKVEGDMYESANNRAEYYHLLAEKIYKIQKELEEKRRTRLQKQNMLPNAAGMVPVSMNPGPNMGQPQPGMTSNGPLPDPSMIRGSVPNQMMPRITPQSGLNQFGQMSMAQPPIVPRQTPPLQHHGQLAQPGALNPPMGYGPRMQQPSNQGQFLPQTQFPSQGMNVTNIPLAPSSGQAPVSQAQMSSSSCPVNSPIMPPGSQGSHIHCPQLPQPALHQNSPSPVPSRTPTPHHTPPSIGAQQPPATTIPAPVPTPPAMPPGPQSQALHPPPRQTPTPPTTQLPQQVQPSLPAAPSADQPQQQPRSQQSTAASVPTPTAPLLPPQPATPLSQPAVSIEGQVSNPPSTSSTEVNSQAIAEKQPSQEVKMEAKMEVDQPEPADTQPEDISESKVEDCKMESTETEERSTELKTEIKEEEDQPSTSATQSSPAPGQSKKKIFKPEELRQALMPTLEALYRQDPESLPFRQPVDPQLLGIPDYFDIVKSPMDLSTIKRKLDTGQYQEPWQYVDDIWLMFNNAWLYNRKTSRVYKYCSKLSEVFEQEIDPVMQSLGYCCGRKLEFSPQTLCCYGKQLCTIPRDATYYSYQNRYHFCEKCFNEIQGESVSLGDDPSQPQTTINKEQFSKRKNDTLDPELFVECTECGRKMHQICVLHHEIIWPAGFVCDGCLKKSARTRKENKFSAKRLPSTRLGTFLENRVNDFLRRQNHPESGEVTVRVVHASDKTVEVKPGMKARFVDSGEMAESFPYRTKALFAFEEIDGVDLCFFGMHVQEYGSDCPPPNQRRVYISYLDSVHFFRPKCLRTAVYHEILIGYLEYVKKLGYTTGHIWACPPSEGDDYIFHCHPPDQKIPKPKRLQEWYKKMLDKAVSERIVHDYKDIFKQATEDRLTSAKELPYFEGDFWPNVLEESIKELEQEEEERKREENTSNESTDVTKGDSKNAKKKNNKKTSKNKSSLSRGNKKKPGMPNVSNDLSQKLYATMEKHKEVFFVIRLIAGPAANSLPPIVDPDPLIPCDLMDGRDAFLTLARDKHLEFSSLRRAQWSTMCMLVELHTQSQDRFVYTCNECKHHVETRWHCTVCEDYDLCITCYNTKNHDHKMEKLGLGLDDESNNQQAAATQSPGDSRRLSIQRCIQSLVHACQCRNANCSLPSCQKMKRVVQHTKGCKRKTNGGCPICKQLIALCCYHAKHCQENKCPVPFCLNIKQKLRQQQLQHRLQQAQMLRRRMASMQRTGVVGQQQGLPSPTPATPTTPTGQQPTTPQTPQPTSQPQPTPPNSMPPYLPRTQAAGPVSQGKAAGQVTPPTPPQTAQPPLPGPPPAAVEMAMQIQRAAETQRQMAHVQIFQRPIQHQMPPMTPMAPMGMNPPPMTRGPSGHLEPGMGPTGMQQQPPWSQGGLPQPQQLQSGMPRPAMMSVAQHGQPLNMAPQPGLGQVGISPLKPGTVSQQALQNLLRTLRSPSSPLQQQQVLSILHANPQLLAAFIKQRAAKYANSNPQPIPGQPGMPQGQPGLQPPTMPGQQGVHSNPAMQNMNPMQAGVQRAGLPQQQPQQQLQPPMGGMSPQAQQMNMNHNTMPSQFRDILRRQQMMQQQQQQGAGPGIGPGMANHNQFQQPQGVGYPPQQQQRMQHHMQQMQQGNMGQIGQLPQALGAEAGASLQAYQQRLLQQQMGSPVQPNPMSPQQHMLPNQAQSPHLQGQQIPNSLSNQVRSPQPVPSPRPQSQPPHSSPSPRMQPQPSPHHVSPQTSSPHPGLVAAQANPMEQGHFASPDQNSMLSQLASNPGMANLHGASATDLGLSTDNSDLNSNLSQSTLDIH

IC50 [1] [nM] | inhibition at 0.01 µM [2] [%] | Compound
> 10000 | < 20 | CNC(=O)N1CCc2c(c(N3CCCc4cc(-c5cnn(CC(=O)NCCOCC(=O)N[C@H](C(=O)N6C[C@H](O)C[C@H]6C(=O)NCc6ccc(-c7scnc7C)cc6)C(C)(C)C)c5)c(C(F)F)cc43)nn2C2CCOCC2)C1 [P-073, 3-(7-(Difluoromethyl)-6-(1-(2-((2-(2-(((S)-1-((2S,4R)-4-hydroxy-2-((4-(4-methylthiazol-5-yl)benzyl)carbamoyl)pyrrolidin-1-yl)-3,3-dimethyl-1-oxobutan-2-yl)amino)-2-oxoethoxy)ethyl)amino)-2-oxoethyl)-1H-pyrazol-4-yl)-3,4-dihydroquinolin-1(2H)-yl)-N-methyl-1-(tetrahydro-2H-pyran-4-yl)-1,4,6,7-tetrahydro-5H-pyrazolo[4,3-c]pyridine-5-carboxamide]
> 10000 | < 20 | CNC(=O)N1CCc2c(c(N3CCCc4cc(-c5cnn(CC(=O)NCCOCCOCCC(=O)N[C@H](C(=O)N6C[C@H](O)C[C@H]6C(=O)NCc6ccc(-c7scnc7C)cc6)C(C)(C)C)c5)c(C(F)F)cc43)nn2C2CCOCC2)C1 [P-075, 3-(7-(Difluoromethyl)-6-(1-((S)-14-((2S,4R)-4-hydroxy-2-((4-(4-methylthiazol-5-yl)benzyl)carbamoyl)pyrrolidine-1-carbonyl)-15,15-dimethyl-2,12-dioxo-6,9-dioxa-3,13-diazahexadecyl)-1H-pyrazol-4-yl)-3,4-dihydroquinolin-1(2H)-yl)-N-methyl-1-(tetrahydro-2H-pyran-4-yl)-1,4,6,7-tetrahydro-5H-pyrazolo[4,3-c]pyridine-5-carboxamide]
> 10000 | < 20 | CNC(=O)N1CCc2c(c(N3CCCc4cc(-c5cnn(CC(=O)NCCOCCOCCOCC(=O)N[C@H](C(=O)N6C[C@H](O)C[C@H]6C(=O)NCc6ccc(-c7scnc7C)cc6)C(C)(C)C)c5)c(C(F)F)cc43)nn2C2CCOCC2)C1 [P-076, 3-(7-(Difluoromethyl)-6-(1-((S)-16-((2S,4R)-4-hydroxy-2-((4-(4-methylthiazol-5-yl)benzyl)carbamoyl)pyrrolidine-1-carbonyl)-17,17-dimethyl-2,14-dioxo-6,9,12-trioxa-3,15-diazaoctadecyl)-1H-pyrazol-4-yl)-3,4-dihydroquinolin-1(2H)-yl)-N-methyl-1-(tetrahydro-2H-pyran-4-yl)-1,4,6,7-tetrahydro-5H-pyrazolo[4,3-c]pyridine-5-carboxamide]
> 10000 | < 20 | CNC(=O)N1CCc2c(c(N3CCCc4cc(-c5cnn(CC(=O)NCCOCCOCCOCCC(=O)N[C@H](C(=O)N6C[C@H](O)C[C@H]6C(=O)NCc6ccc(-c7scnc7C)cc6)C(C)(C)C)c5)c(C(F)F)cc43)nn2C2CCOCC2)C1 [P-077, 3-(7-(Difluoromethyl)-6-(1-((S)-17-((2S,4R)-4-hydroxy-2-((4-(4-methylthiazol-5-yl)benzyl)carbamoyl)pyrrolidine-1-carbonyl)-18,18-dimethyl-2,15-dioxo-6,9,12-trioxa-3,16-diazanonadecyl)-1H-pyrazol-4-yl)-3,4-dihydroquinolin-1(2H)-yl)-N-methyl-1-(tetrahydro-2H-pyran-4-yl)-1,4,6,7-tetrahydro-5H-pyrazolo[4,3-c]pyridine-5-carboxamide]
> 10000 | < 20 | CNC(=O)N1CCc2c(c(N3CCCc4cc(-c5cnn(CC(=O)NCCOCCOCCOCCOCCC(=O)N[C@H](C(=O)N6C[C@H](O)C[C@H]6C(=O)NCc6ccc(-c7scnc7C)cc6)C(C)(C)C)c5)c(C(F)F)cc43)nn2C2CCOCC2)C1 [P-078, 3-(7-(Difluoromethyl)-6-(1-((S)-20-((2S,4R)-4-hydroxy-2-((4-(4-methylthiazol-5-yl)benzyl)carbamoyl)pyrrolidine-1-carbonyl)-21,21-dimethyl-2,18-dioxo-6,9,12,15-tetraoxa-3,19-diazadocosyl)-1H-pyrazol-4-yl)-3,4-dihydroquinolin-1(2H)-yl)-N-methyl-1-(tetrahydro-2H-pyran-4-yl)-1,4,6,7-tetrahydro-5H-pyrazolo[4,3-c]pyridine-5-carboxamide]
> 10000 | < 20 | CNC(=O)N1CCc2c(c(N3CCCc4cc(-c5cnn(CC(=O)NCCCC(=O)N[C@H](C(=O)N6C[C@H](O)C[C@H]6C(=O)NCc6ccc(-c7scnc7C)cc6)C(C)(C)C)c5)c(C(F)F)cc43)nn2C2CCOCC2)C1 [P-079, 3-(7-(Difluoromethyl)-6-(1-(2-((4-(((S)-1-((2S,4R)-4-hydroxy-2-((4-(4-methylthiazol-5-yl)benzyl)carbamoyl)pyrrolidin-1-yl)-3,3-dimethyl-1-oxobutan-2-yl)amino)-4-oxobutyl)amino)-2-oxoethyl)-1H-pyrazol-4-yl)-3,4-dihydroquinolin-1(2H)-yl)-N-methyl-1-(tetrahydro-2H-pyran-4-yl)-1,4,6,7-tetrahydro-5H-pyrazolo[4,3-c]pyridine-5-carboxamide]
> 10000 | < 20 | CNC(=O)N1CCc2c(c(N3CCCc4cc(-c5cnn(CC(=O)NCCCCCCC(=O)N[C@H](C(=O)N6C[C@H](O)C[C@H]6C(=O)NCc6ccc(-c7scnc7C)cc6)C(C)(C)C)c5)c(C(F)F)cc43)nn2C2CCOCC2)C1 [P-080, 3-(7-(Difluoromethyl)-6-(1-(2-((7-(((S)-1-((2S,4R)-4-hydroxy-2-((4-(4-methylthiazol-5-yl)benzyl)carbamoyl)pyrrolidin-1-yl)-3,3-dimethyl-1-oxobutan-2-yl)amino)-7-oxoheptyl)amino)-2-oxoethyl)-1H-pyrazol-4-yl)-3,4-dihydroquinolin-1(2H)-yl)-N-methyl-1-(tetrahydro-2H-pyran-4-yl)-1,4,6,7-tetrahydro-5H-pyrazolo[4,3-c]pyridine-5-carboxamide]
469 | < 20 | CNC(=O)N1CCc2c(c(N3CCCc4cc(-c5cnn(CC(=O)NCCCCCCCCC(=O)N[C@H](C(=O)N6C[C@H](O)C[C@H]6C(=O)NCc6ccc(-c7scnc7C)cc6)C(C)(C)C)c5)c(C(F)F)cc43)nn2C2CCOCC2)C1 [P-081, 3-(7-(Difluoromethyl)-6-(1-(2-((9-(((S)-1-((2S,4R)-4-hydroxy-2-((4-(4-methylthiazol-5-yl)benzyl)carbamoyl)pyrrolidin-1-yl)-3,3-dimethyl-1-oxobutan-2-yl)amino)-9-oxononyl)amino)-2-oxoethyl)-1H-pyrazol-4-yl)-3,4-dihydroquinolin-1(2H)-yl)-N-methyl-1-(tetrahydro-2H-pyran-4-yl)-1,4,6,7-tetrahydro-5H-pyrazolo[4,3-c]pyridine-5-carboxamide]
13.1 | 50 to 80 | CNC(=O)N1CCc2c(c(N3CCCc4cc(-c5cnn(C)c5)c(C(F)F)cc43)nn2C2CCN(C(=O)CCCCCOc3cccc4c3C(=O)N(C3CCC(=O)NC3=O)C4=O)CC2)C1 (centres unmarked) [P-084, 3-(7-(Difluoromethyl)-6-(1-methyl-1H-pyrazol-4-yl)-3,4-dihydroquinolin-1(2H)-yl)-1-(1-(6-((2-(2,6-dioxopiperidin-3-yl)-1,3-dioxoisoindolin-4-yl)oxy)hexanoyl)piperidin-4-yl)-N-methyl-1,4,6,7-tetrahydro-5H-pyrazolo[4,3-c]pyridine-5-carboxamide]
3.8 | > 80 | CNC(=O)N1CCc2c(c(N3CCCc4cc(-c5cnn(C)c5)c(C(F)F)cc43)nn2C2CCN(C(=O)CCCCCCc3cccc4c3C(=O)N(C3CCC(=O)NC3=O)C4=O)CC2)C1 (centres unmarked) [P-085, 3-(7-(difluoromethyl)-6-(1-methyl-1H-pyrazol-4-yl)-3,4-dihydroquinolin-1(2H)-yl)-1-(1-(7-(2-(2,6-dioxopiperidin-3-yl)-1,3-dioxoisoindolin-4-yl)heptanoyl)piperidin-4-yl)-N-methyl-1,4,6,7-tetrahydro-5H-pyrazolo[4,3-c]pyridine-5-carboxamide]
21.1 | 50 to 80 | CNC(=O)N1CCc2c(c(N3CCCc4cc(-c5cnn(C)c5)c(C(F)F)cc43)nn2C2CCN(C(=O)CCCCCCc3cccc4c3CN(C3CCC(=O)NC3=O)C4=O)CC2)C1 (centres unmarked) [P-086, 3-(7-(Difluoromethyl)-6-(1-methyl-1H-pyrazol-4-yl)-3,4-dihydroquinolin-1(2H)-yl)-1-(1-(7-(2-(2,6-dioxopiperidin-3-yl)-1-oxoisoindolin-4-yl)heptanoyl)piperidin-4-yl)-N-methyl-1,4,6,7-tetrahydro-5H-pyrazolo[4,3-c]pyridine-5-carboxamide]
12.6 | 20 to 50 | CNC(=O)N1CCc2c(c(N3CCCc4cc(-c5cnn(C)c5)c(C(F)F)cc43)nn2C2CCN(C(=O)CCCCCCc3cccc4c3C(=O)N(C3CCC(=O)NC3=O)C4)CC2)C1 (centres unmarked) [P-087, 3-(7-(Difluoromethyl)-6-(1-methyl-1H-pyrazol-4-yl)-3,4-dihydroquinolin-1(2H)-yl)-1-(1-(7-(2-(2,6-dioxopiperidin-3-yl)-3-oxoisoindolin-4-yl)heptanoyl)piperidin-4-yl)-N-methyl-1,4,6,7-tetrahydro-5H-pyrazolo[4,3-c]pyridine-5-carboxamide]
5.5 | > 80 | CNC(=O)N1CCc2c(c(N3CCCc4cc(-c5cnn(C)c5)c(C(F)F)cc43)nn2C2CCN(C(=O)CCCCCOc3cccc4c3CN(C3CCC(=O)NC3=O)C4=O)CC2)C1 (centres unmarked) [P-088, 3-(7-(difluoromethyl)-6-(1-methyl-1H-pyrazol-4-yl)-3,4-dihydroquinolin-1(2H)-yl)-1-(1-(6-((2-(2,6-dioxopiperidin-3-yl)-1-oxoisoindolin-4-yl)oxy)hexanoyl)piperidin-4-yl)-N-methyl-1,4,6,7-tetrahydro-5H-pyrazolo[4,3-c]pyridine-5-carboxamide]
